Source: patent US7223770B2, “Tocopherol-modified therapeutic drug compounds” (priority 2003, dated 2007)
Where a name gives a salt, the structure may show the parent alone. Read-outs that look alike come from different tables or passages of the source. Marks after values point to notes of the source that are not given here. Values belong to the molecule of their own block, whether it stands above or below them.

Key:
[1] = tested on: NCI-H460 (non-small cell lung); details: NCI-H460 (NSCLC); value reported by NCI; cited from earlier work
HCT-15 (colorectal) [2] = details: HCT-15 (COLON); value reported by NCI; cited from earlier work
OVCAR-3 (ovarian) [3] = details: value reported by NCI; cited from earlier work
HCT-116 (colorectal) [4] = details: HCT-116 (COLON); value reported by NCI; cited from earlier work
HT-29 (colorectal) [5] = details: HT29 (COLON); value reported by NCI; cited from earlier work
MCF-7 (breast) [6] = details: value reported by NCI; cited from earlier work
[7] = rats, intravenous; literature value; cited from earlier work
HT-29 human tumor cells = test: HT-29 Human Tumor Xenograft anti-tumor activity; format: in vivo, Athymic mice; details: for Number of animals with no measurable tumor on Day 55 / Tumor Growth Delay (T − C) / Tumor Growth Inhibition (% T/C) / Tumors that had still not reached maximum pre-determined size: 15 mg/kg intravenous; for Tumor Growth Inhibition (% T/C): at Day 55; for Median tumor size / Mice with no measurable tumor: fifty-five days after dose initiation
Experimental: HT-29 Human Tumor Xenograft. Athymic mice were subcutaneously implanted with 30–40 mg tumor fragments using 12-gauge trocar needles. A sufficient number of mice were implanted with fragments so tumors in narrow weight range (100–200 mg) were selected for the trial on staging day (SD). The animals selected with tumors in the proper size range were randomized into six groups of 10 animals and intravenously administered the following test compounds:
The tumor measurements were performed using a caliper (millimeters); the tumor volume was calculated based on the formula: (Length×width^2)/2=Volume (mm^3).

[8] = format: physicochemical; details: for Solubility in TPGS / Solubility in Vitamin E USP/NF: 65 °C; for Solubility in Tween 80 NF: 65 → Room Temp.; for Solubility in Acetonitrile / Solubility in Captex 300 EP / Solubility in Chloroform / Solubility in DMSO / Solubility in Ethanol Denatured / Solubility in Glycerin USP/EP/BP/JP / Solubility in Methanol / Solubility in Methylene dichloride / Solubility in PEG-400 NF / Solubility in Propylene Glycol, USP / Solubility in Soybean Oil USP: Room Temp.
Experimental: Compounds were dissolved in each solvent under constant stirring and temperature to saturation. The resulting solutions were centrifuged and the supernatant was analyzed by high performance liquid chromatography (HPLC).

[9] = In vitro stability of the lactone form in presence of human serum albumin; format: in vitro ADME; details: saline buffered solution 10 mM pH 7.4, 4% human serum albumin, 37° C.; tested as SN2300 / SN2310 emulsion; FIG. 12
Text: High performance liquid chromatography with fluorescence detection was used to analyze the decrease in the concentration of the lactone form over time.

HCT-116 (colorectal) [10] = test: In vitro cytotoxicity GI50, ALAMAR BLUE, 48 hours; format: cell-based; details: HCT-116 (COLON), emulsion formulation diluted in cell media
Experimental: (§1) The cells were in contact with varying concentrations of the test article for a period of 48 hours. At the end of 48 hours, staining with ALAMAR BLUE was performed to determine the number of viable cells and calculate the degree of cellular growth inhibition as compared to a control group.

HCT-15 (colorectal) [11] = test: In vitro cytotoxicity GI50, ALAMAR BLUE, 48 hours; format: cell-based; details: HCT-15 (COLON), emulsion formulation diluted in cell media
Experimental: as §1

MCF-7 (breast) [12] = test: In vitro cytotoxicity GI50, ALAMAR BLUE, 48 hours; format: cell-based; details: emulsion formulation diluted in cell media
Experimental: as §1

OVCAR-3 (ovarian) [13] = test: In vitro cytotoxicity GI50, ALAMAR BLUE, 48 hours; format: cell-based; details: emulsion formulation diluted in cell media
Experimental: as §1

HT-29 (colorectal) [14] = test: In vitro cytotoxicity GI50, ALAMAR BLUE, 48 hours; format: cell-based, human; details: HT29 (COLON), emulsion formulation diluted in cell media
Experimental: as §1

[15] = tested on: NCI-H460 (non-small cell lung); test: In vitro cytotoxicity GI50, ALAMAR BLUE, 48 hours; format: cell-based, human; details: NCI-H460 (NSCLC), emulsion formulation diluted in cell media
Experimental: as §1

[16] = Pharmacokinetics following intravenous administration in rats; format: in vivo, Sprague-Dawley rats; details: for Clearance / MRT / t1/2 (elimination): Sprague-Dawley rats, bolus intravenous, emulsion, approximately 14 mg/kg, plasma; for Plasma elimination half-life, times longer than the commercially available analogs: rats, intravenous
Experimental: Blood samples were collected for up to 120 hours post dose via the jugular vein. […] A noncompartmental analysis was carried out using WinNonlin (v 4.1).
The term “elimination rate constant” refers to the fraction of drug eliminated per unit of time. With first-order elimination, the rate of elimination is directly proportional to the serum drug concentration. There is a linear relationship between rate of elimination and serum drug concentration. Although the amount of drug eliminated in a first-order process changes with concentration, the fraction of a drug eliminated remains constant.
The term “clearance” refers to a measure of the body's ability to eliminate drug and is a hypothetical volume of distribution of drug which is cleared per unit time (i.e., mL/min) by any pathway of drug removal. […] The term “volume of distribution” refers to a calculated volume of body fluid that would be required to dissolve the total amount of drug at the same concentration as that found in the blood. It is a proportionality constant relating the amount of drug in the body to the measured concentration in biological fluid (blood, plasma, serum).

Compound: CC[C@@]1(O)C(=O)OCc2c1cc1n(c2=O)Cc2cc3ccccc3nc2-1 [Camptothecin]
GI50 [1]: 16 nM | GI50 (HCT-15 (colorectal) [2]): 160 nM | GI50 (OVCAR-3 (ovarian) [3]): 160 nM | GI50 (HCT-116 (colorectal) [4]): 40 nM | GI50 (HT-29 (colorectal) [5]): 126 nM | GI50 (MCF-7 (breast) [6]): 13 nM | Clearance [7]: 147 mL/min/kg | t1/2 (elimination) [7]: 1.7 h

Compound: CC[C@@]1(O)C(=O)OCc2c1cc1n(c2=O)Cc2cc3cc(O)ccc3nc2-1 [Example 10-HO-CPT, 10-hydroxycamptothecin]
GI50 [1]: 11 nM | GI50 (HCT-15 (colorectal) [2]): 356 nM | GI50 (OVCAR-3 (ovarian) [3]): 62 nM | GI50 (HCT-116 (colorectal) [4]): 27 nM | GI50 (HT-29 (colorectal) [5]): 112 nM | GI50 (MCF-7 (breast) [6]): 10 nM

Compound: CCc1c2c(nc3ccc(OC(=O)N4CCC(N5CCCCC5)CC4)cc13)-c1cc3c(c(=O)n1C2)COC(=O)[C@]3(O)CC [Irinotecan, irinotecan hydrochloride]
Number of animals with no measurable tumor on Day 55 (HT-29 human tumor cells; q1dx5 (2 weeks)): 0/10 | Tumor Growth Delay (T − C) (HT-29 human tumor cells; q1dx5 (2 weeks)): 14 days | Tumor Growth Inhibition (% T/C) (HT-29 human tumor cells; q1dx5 (2 weeks)): 52 % T/C | Median tumor size (HT-29 human tumor cells; q1dx5): 1637 mm^3 | GI50 [1]: 5010 nM | GI50 (HCT-116 (colorectal) [4]): 7900 nM | GI50 (HT-29 (colorectal) [5]): 12600 nM | GI50 (MCF-7 (breast) [6]): 3980 nM | MRT [7]: 1.43 h

Compound: CCc1c2c(nc3ccc(O)cc13)-c1cc3c(c(=O)n1C2)COC(=O)[C@]3(O)CC [SN38, 7-ethyl-10-hydroxycamptothecin]
GI50 [1]: 1.4 nM | GI50 (HCT-15 (colorectal) [2]): 7.9 nM | GI50 (OVCAR-3 (ovarian) [3]): 2.9 nM | GI50 (HCT-116 (colorectal) [4]): 21 nM | GI50 (HT-29 (colorectal) [5]): 1 nM

Compound: CC[C@@]1(OC(=O)CCC(=O)Oc2c(C)c(C)c3c(c2C)CC[C@@](C)(CCC[C@H](C)CCC[C@H](C)CCCC(C)C)O3)C(=O)OCc2c1cc1n(c2=O)Cc2cc3ccccc3nc2-1 [SN2300]
Solubility in TPGS [8]: >133.3 mg/g | Solubility in Vitamin E USP/NF [8]: >288.3 mg/g | Solubility in Tween 80 NF [8]: 48.3 mg/g | Solubility in Acetonitrile [8]: 49.6 mg/g | Solubility in Captex 300 EP [8]: 96.7 mg/g | Solubility in Chloroform [8]: >372.5 mg/g | Solubility in DMSO [8]: >255.5 mg/g | Solubility in Ethanol Denatured [8]: 57.1 mg/g | Solubility in Glycerin USP/EP/BP/JP [8]: 2.541 mg/g | Solubility in Methanol [8]: 14.4 mg/g | Solubility in Methylene dichloride [8]: >336.5 mg/g | Solubility in PEG-400 NF [8]: 17.5 mg/g | Solubility in Propylene Glycol, USP [8]: 0.4633 mg/g | Solubility in Soybean Oil USP [8]: 45.2 mg/g | Stability of the lactone form over time [9]: greater than that of camptothecin | GI50 (HCT-116 (colorectal) [10]): 449 nM | GI50 (HCT-15 (colorectal) [11]): 20000 nM | GI50 (MCF-7 (breast) [12]): 325 nM | GI50 column, result in words (Poor activity) (OVCAR-3 (ovarian) [13]): Poor | GI50 (HT-29 (colorectal) [14]): 434 nM | GI50 [15]: 43 nM | Clearance [16]: 0.135 mL/min/kg | MRT [16]: 9.40 h | t1/2 (elimination) [16]: 29.08 h | Plasma elimination half-life, times longer than the commercially available analogs [16]: approximately 30 times | Number of animals with no measurable tumor on Day 55 (HT-29 human tumor cells; q1dx5 (2 weeks)): 0/10 | Tumor Growth Delay (T − C) (HT-29 human tumor cells; q1dx5 (2 weeks)): 8.5 days | Tumor Growth Inhibition (% T/C) (HT-29 human tumor cells; q1dx5 (2 weeks)): 79 % T/C | Number of animals with no measurable tumor on Day 55 (HT-29 human tumor cells; q3dx10): 0/10 | Tumor Growth Delay (T − C) (HT-29 human tumor cells; q3dx10): 0 days | Tumor Growth Inhibition (% T/C) (HT-29 human tumor cells; q3dx10): 102 % T/C

Solubility in TPGS [8]: 27.6 mg/g | Solubility in Vitamin E USP/NF [8]: 398.2 mg/g | Solubility in Tween 80 NF [8]: 2.7 mg/g | Solubility in Acetonitrile [8]: 3.1 mg/g | Solubility in Captex 300 EP [8]: 4.4 mg/g | Solubility in Chloroform [8]: >97.0 mg/g | Solubility in DMSO [8]: 30.5 mg/g | Solubility in Ethanol Denatured [8]: 4.2 mg/g | Solubility in Glycerin USP/EP/BP/JP [8]: 2.8 mg/g | Solubility in Methanol [8]: 3.8 mg/g | Solubility in Methylene dichloride [8]: >99.7 mg/g | Solubility in PEG-400 NF [8]: 0.017 mg/g | Solubility in Propylene Glycol, USP [8]: 3.2 mg/g | Solubility in Soybean Oil USP [8]: 3.3 mg/g | Stability of the lactone form over time [9]: greater than that of camptothecin | Clearance [16]: 0.112 mL/min/kg | MRT [16]: 5.15 h | t1/2 (elimination) [16]: 3.49 h | Plasma elimination half-life, times longer than the commercially available analogs [16]: ~3 times
Compound: CCc1c2c(nc3ccc(OC(=O)CCC(=O)Oc4c(C)c(C)c5c(c4C)CC[C@@](C)(CCC[C@H](C)CCC[C@H](C)CCCC(C)C)O5)cc13)-c1cc3c(c(=O)n1C2)COC(=O)[C@]3(O)CC [SN2310]
GI50 (HCT-116 (colorectal) [10]): 119 nM | GI50 (HCT-15 (colorectal) [11]): 99 nM | GI50 (OVCAR-3 (ovarian) [13]): 83 nM | GI50 (HT-29 (colorectal) [14]): 91 nM | GI50 [15]: 4 nM | Number of animals with no measurable tumor on Day 55 (HT-29 human tumor cells; q1dx5 (2 weeks)): 4/10 | Tumor Growth Delay (T − C) (HT-29 human tumor cells; q1dx5 (2 weeks)): >28* days | Tumors that had still not reached maximum pre-determined size (HT-29 human tumor cells; q1dx5 (2 weeks)): *90% of tumors in this group had still not reached maximum pre-determined size. | Tumor Growth Inhibition (% T/C) (HT-29 human tumor cells; q1dx5 (2 weeks)): 4 % T/C | Number of animals with no measurable tumor on Day 55 (HT-29 human tumor cells; q3dx10): 8/10 | Tumor Growth Delay (T − C) (HT-29 human tumor cells; q3dx10): >28* days | Tumors that had still not reached maximum pre-determined size (HT-29 human tumor cells; q3dx10): *90% of tumors in this group had still not reached maximum pre-determined size. | Tumor Growth Inhibition (% T/C) (HT-29 human tumor cells; q3dx10): 2 % T/C | Median tumor size (HT-29 human tumor cells; q1dx5): 126 mm^3 | Mice with no measurable tumor (HT-29 human tumor cells; q1dx5): 40% | Mice with no measurable tumor (HT-29 human tumor cells; q3dx10): 80%

Compound: CC[C@@]1(O)C(=O)OCc2c1cc1n(c2=O)Cc2cc3c(CN(C)C)c(O)ccc3nc2-1 [Topotecan, topotecan hydrochloride]
GI50 [1]: 19.9 nM | GI50 (HCT-15 (colorectal) [2]): 501 nM | GI50 (OVCAR-3 (ovarian) [3]): 251 nM | GI50 (HCT-116 (colorectal) [4]): 39.8 nM | GI50 (HT-29 (colorectal) [5]): 125 nM | GI50 (MCF-7 (breast) [6]): 15.8 nM | Clearance [7]: 53.7 mL/min/kg | t1/2 (elimination) [7]: 1.06 h
